TGI and GI50 data for 13 molecules are collected here from PubChem BioAssay (NCI).

Each structure is given as a SMILES string. “And” between values parts separate entries of the source, which are not always exact repeats. Equal entries are not always repeated.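 Assay format: 96-well plates, 48-hour exposure. At the GI50, growth is halved. TGI: concentration producing complete growth inhibition.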

Some test systems named below: KM12 colon; UO-31 renal; SF-295 CNS; SF-539 CNS; A498 renal; SNB-19 CNS; HOP-92 NSCLC; NCI-H23 lung; MALME-3M melanoma; OVCAR-4 ovarian; NCI-H460 lung; SNB-75 CNS; MOLT-4 leukemia.
Assay in all cases: NCI-60 cell line screen, 48 h

Consider `CN(C)c1ccc(/C=C2/SC(=S)NC2=O)cc1`, for which the TGI with KM12 colon, in the assay on UO-31 renal, with SF-295 CNS, with SF-539 CNS, in the assay on A498 renal and with SNB-19 CNS was greater than 100 µM each time. Besides, the TGI with HOP-92 NSCLC, in the assay with NCI-H23 lung, in the assay with MALME-3M melanoma, in the assay with OVCAR-4 ovarian, in the assay on NCI-H460 lung and in the assay with SNB-75 CNS was greater than 100 µM in each case. The same molecule came in with a TGI in the assay on MOLT-4 leukemia greater than 100 µM.

As to `CC1=C(C)C(=O)O[C@@H]([C@](C)(O)[C@]2(O)CC[C@@]3(O)[C@@H]4C[C@H]5O[C@]56[C@@H](O)C=CC(=O)[C@]6(C)[C@H]4CC[C@]23C)C1`, the GI50 is 0.95 µM and 0.637 µM in the assay on KM12 colon; 1.12 µM and 0.376 µM with A498 renal; 0.38 µM and 0.205 µM in the assay with NCI-H23 lung; 0.411 µM in the assay on MALME-3M melanoma; 0.0878 µM and 0.43 µM in the assay with OVCAR-4 ovarian; 2 µM with NCI-H460 lung. Moreover, in the assay with MOLT-4 leukemia, the GI50 is 0.0688 µM and 0.177 µM. Moreover, the TGI in the assay with KM12 colon was 6.73 µM and 4.57 µM; in the assay on UO-31 renal it was 6.36 µM; in the assay with SF-295 CNS it was 19.5 µM; in the assay on SF-539 CNS it was 6.13 µM; in the assay with A498 renal, 11.1 µM and 2.08 µM; in the assay on SNB-19 CNS, 31.1 µM. The TGI in the assay on HOP-92 NSCLC is 0.345 µM; in the assay with NCI-H23 lung it was 4.63 µM and 1.29 µM; in the assay with MALME-3M melanoma, 2.27 µM and 2.66 µM; with OVCAR-4 ovarian it was 3.08 µM and 1 µM; with NCI-H460 lung, 9.22 µM and 9.66 µM; in the assay with SNB-75 CNS, 0.884 µM.

Consider `CC(C)(C)NCc1cc(Nc2ccnc3cc(Cl)ccc23)cc(-c2ccc(Cl)cc2)c1O`, for which the TGI is 10.4 µM with KM12 colon; 18.1 µM with UO-31 renal; 6.23 µM in the assay with SF-295 CNS; 3.28 µM in the assay with SF-539 CNS; 11.5 µM in the assay with A498 renal; 18.2 µM in the assay on SNB-19 CNS. The TGI in the assay on HOP-92 NSCLC is 7.08 µM; in the assay on NCI-H23 lung it was 14 µM; in the assay on MALME-3M melanoma it was 3.28 µM; in the assay on OVCAR-4 ovarian it was 14.5 µM; in the assay on NCI-H460 lung, 8.18 µM; in the assay with SNB-75 CNS it was 5.13 µM. For the same molecule, the TGI in the assay on MOLT-4 leukemia is 4.55 µM.

As for `O=c1[nH]c(Nc2ccc(F)c(Cl)c2)nc2nc[nH]c12`, the TGI with KM12 colon, in the assay on UO-31 renal, with SF-295 CNS, with SF-539 CNS, in the assay with A498 renal and with SNB-19 CNS was greater than 100 µM in each case. Also, the TGI with HOP-92 NSCLC is greater than 100 µM; in the assay on NCI-H23 lung it was greater than 100 µM; with MALME-3M melanoma it was greater than 100 µM; in the assay on OVCAR-4 ovarian, greater than 100 µM; in the assay with NCI-H460 lung, greater than 100 µM; in the assay with SNB-75 CNS it was 97.8 µM. Besides, the TGI with MOLT-4 leukemia was 39.5 µM.

`CC1C(=O)OC2CC[N+]3(CC(=O)c4ccc(Br)cc4)CC=C(COC(=O)C(C)(O)C1(C)O)C23` (centres undefined): the TGI in the assay with KM12 colon, in the assay on UO-31 renal, in the assay on SF-295 CNS, in the assay on SF-539 CNS, in the assay with A498 renal and with SNB-19 CNS was greater than 375 µM each time. The TGI in the assay with HOP-92 NSCLC, in the assay with NCI-H23 lung, with MALME-3M melanoma, in the assay with OVCAR-4 ovarian, in the assay on NCI-H460 lung and in the assay on SNB-75 CNS was greater than 375 µM in each case. In addition, the TGI in the assay with MOLT-4 leukemia was greater than 375 µM.

With `COCO[C@@H]1C[C@H]2C(O)Nc3ccccc3C(=O)N2C1` (some centres undefined), the TGI with KM12 colon, in the assay on UO-31 renal, with SF-295 CNS, in the assay with SF-539 CNS, in the assay with A498 renal and in the assay on SNB-19 CNS was greater than 100 µM throughout. Further, the TGI in the assay on HOP-92 NSCLC, in the assay with NCI-H23 lung, in the assay on OVCAR-4 ovarian, with NCI-H460 lung, in the assay on SNB-75 CNS and in the assay with MOLT-4 leukemia was greater than 100 µM each time.

`COC(=O)CCC(=O)CC(=O)C1=NS(=O)(=O)c2nc(S(N)(=O)=O)c(Cl)cc2N1`: the TGI in the assay on KM12 colon, in the assay on UO-31 renal, in the assay on SF-295 CNS, with SF-539 CNS, with A498 renal and in the assay on SNB-19 CNS was greater than 100 µM in each case. Besides, the TGI with HOP-92 NSCLC, with NCI-H23 lung, in the assay on MALME-3M melanoma, in the assay on OVCAR-4 ovarian, in the assay on NCI-H460 lung and in the assay on SNB-75 CNS was greater than 100 µM each time. The molecule further displayed a TGI in the assay on MOLT-4 leukemia greater than 100 µM.

With `O=C(O)CCCCCCC[C@@H]1S[C@H]1CCCCCCO`, the TGI in the assay on KM12 colon, in the assay on UO-31 renal, with SF-295 CNS, in the assay on SF-539 CNS, with A498 renal and with SNB-19 CNS was greater than 100 µM in each case. For the same molecule, the TGI in the assay on HOP-92 NSCLC is greater than 94.4 µM; in the assay with NCI-H23 lung, greater than 100 µM; with MALME-3M melanoma it was greater than 100 µM; in the assay with OVCAR-4 ovarian, greater than 100 µM; in the assay with NCI-H460 lung, greater than 100 µM; with SNB-75 CNS, greater than 100 µM. The TGI in the assay on MOLT-4 leukemia is greater than 100 µM.

For the molecule `C[n+]1c2ccccc2c(CNc2ccc(S(=O)(=O)N=C(N)N)cc2)c2ccccc21`, the TGI with KM12 colon came out at 27.7 µM; in the assay with UO-31 renal, 45.5 µM; in the assay with SF-295 CNS, 23.4 µM; with SF-539 CNS it was 17 µM; with A498 renal, 86.2 µM; in the assay on SNB-19 CNS, 31.6 µM. In addition, the TGI is 54.3 µM in the assay with HOP-92 NSCLC; 33.3 µM in the assay with NCI-H23 lung; 63.1 µM in the assay with MALME-3M melanoma; greater than 100 µM in the assay on OVCAR-4 ovarian; 15 µM in the assay with NCI-H460 lung; 39.9 µM in the assay on SNB-75 CNS. The molecule further gave a TGI in the assay with MOLT-4 leukemia of 1.7 µM.

On to `N#C[S-].[Nd+3].c1cnc2c(c1)ccc1cccnc12.c1cnc2c(c1)ccc1cccnc12.c1cnc2c(c1)ccc1cccnc12`, for which the TGI worked out at 22.6 µM in the assay with KM12 colon; 11.2 µM with UO-31 renal; 0.991 µM in the assay on SF-295 CNS; 14 µM in the assay on SF-539 CNS; 13.6 µM in the assay with A498 renal; 20.3 µM with SNB-19 CNS. The TGI with HOP-92 NSCLC is 17.2 µM; in the assay on NCI-H23 lung, 23.3 µM; with MALME-3M melanoma, 9.54 µM; in the assay with OVCAR-4 ovarian, 14.4 µM; with SNB-75 CNS, 26.2 µM; in the assay on MOLT-4 leukemia it was 6.64 µM.

Regarding `CCSc1nc(N)c2c(-c3ccc(OC)c(OC)c3)c3c(nc2n1)CCCC3`, the TGI in the assay with KM12 colon, with UO-31 renal, in the assay with SF-295 CNS, in the assay on SF-539 CNS, in the assay on SNB-19 CNS and with NCI-H23 lung was greater than 100 µM in each case. In addition, the TGI in the assay with MALME-3M melanoma, in the assay with OVCAR-4 ovarian, in the assay on NCI-H460 lung, in the assay with SNB-75 CNS and in the assay with MOLT-4 leukemia was greater than 100 µM throughout.

On to `Cc1cc(NC(=S)Nc2ccccc2)c(NC(=S)Nc2ccccc2)cc1C`, for which the TGI in the assay on KM12 colon is greater than 100 µM; in the assay with UO-31 renal, greater than 74.6 µM; in the assay with SF-295 CNS, 62.2 µM; in the assay on SF-539 CNS it was 50.6 µM; in the assay with A498 renal it was 98.3 µM; in the assay on SNB-19 CNS it was greater than 100 µM. The TGI with HOP-92 NSCLC is greater than 100 µM; in the assay on NCI-H23 lung it was greater than 95.1 µM; in the assay on MALME-3M melanoma it was greater than 100 µM; in the assay with OVCAR-4 ovarian, greater than 100 µM; in the assay with NCI-H460 lung, greater than 61.7 µM; in the assay with SNB-75 CNS, greater than 94.7 µM. For the same molecule, in the assay on MOLT-4 leukemia, the TGI is greater than 60.1 µM.

With `CC(C)=CC1C(COC(=O)c2cc3c(cc2Cl)OCO3)C1(C)C` (centres undefined), the TGI in the assay with KM12 colon is greater than 100 µM; with UO-31 renal, greater than 100 µM; in the assay with SF-295 CNS, greater than 100 µM; with A498 renal, 90.6 µM; with SNB-19 CNS it was greater than 100 µM; in the assay with HOP-92 NSCLC, 78 µM. The TGI with NCI-H23 lung was greater than 100 µM; in the assay on MALME-3M melanoma, 41.6 µM; in the assay with OVCAR-4 ovarian, greater than 100 µM; with NCI-H460 lung, greater than 100 µM; in the assay on MOLT-4 leukemia, greater than 100 µM.
